Drawing on ChEMBL document CHEMBL1132125, “Synthesis of phosphonate 3-phthalidyl esters as prodrugs for potential intracellular delivery of phosphonates” (Bioorg Med Chem Lett, 1999), this text covers Concentration and half-life for 10 compounds.

Series [1] is filed under the species Rattus norvegicus. Put plainly: Intracellular concentration of 1-naphthalenemethylphosphonate (NMPA) in isolated rat hepatocytes was measured after 15 min of incubation. Format: functional. To be noted: Hepatocyte.
Series [2] in a line: Half-life period of compound was measured in rat plasma. The series is classed as ADME.

For `COc1cccc2c1C(OP(=O)(Cc1cccc3ccccc13)OC1OC(=O)c3cccc(OC)c31)OC2=O` (configuration not stated), in series [1], the Concentration came out at 0 µM.
One may read the half-life as the time needed for the level to fall by half in the phase considered. The low end stands for rapid decline, the high end for slow decline. Take `O=C1OC(OP(=O)(Cc2cccc3ccccc23)OC2OC(=O)c3c(Cl)ccc(Cl)c32)c2c(Cl)ccc(Cl)c21` (configuration not stated): the Concentration in series [1] amounted to 78 µM. Besides, the half-life in series [2] came to 0.1 min.
Take `Cc1ccc2c(c1-c1ccccc1)C(=O)OC2OP(=O)(Cc1cccc2ccccc12)OC1OC(=O)c2c1ccc(C)c2-c1ccccc1` (configuration not stated): in series [1], the Concentration is 20 µM. The same compound came in with a half-life in series [2] of 10 min.
The compound `COc1cc2c(c(OC)c1OC)C(=O)OC2OP(=O)(Cc1cccc2ccccc12)OC1OC(=O)c2c1cc(OC)c(OC)c2OC` (configuration not stated) returned a Concentration in series [1] of 246 µM. This compound also displayed a half-life in series [2] of 5 min.
The corresponding values for `COc1ccc2c(c1)C(OP(=O)(Cc1cccc3ccccc13)OC1OC(=O)c3ccc(OC)cc31)OC2=O` (configuration not stated) are 428 µM and 0.5 min.
For the compound `COc1cc(OC)c2c(c1)C(OP(=O)(Cc1cccc3ccccc13)OC1OC(=O)c3c(OC)cc(OC)cc31)OC2=O` (configuration not stated), in series [1], the Concentration was found to be 359 µM.
`O=P(O)(O)Cc1cccc2ccccc12`: the Concentration in series [1] came to 0 µM.
As for `COc1cccc2c1C(=O)OC2OP(=O)(Cc1cccc2ccccc12)OC1OC(=O)c2c(OC)cccc21` (configuration not stated), in series [1], the Concentration was 336 µM. The compound further yielded a half-life in series [2] of 2 min.
The corresponding values for `O=C1OC(OP(=O)(Cc2cccc3ccccc23)OC2OC(=O)c3ccccc32)c2ccccc21` (configuration not stated) are 500 µM and 0.5 min.
Regarding `CCOc1cccc2c1C(=O)OC2OP(=O)(Cc1cccc2ccccc12)OC1OC(=O)c2c(OCC)cccc21` (configuration not stated), the Concentration in series [1] amounted to 208 µM. The compound also had a half-life in series [2] of 2 min.
